# Assay: Comparison of blood concentrations of donepezil after injection or oral administration
# Type: in vivo
# Conditions: beagle dog, orally administered
substance,measurement,value
donepezil,blood concentration duration,very short for about one day
